pIC50, pKi: −log10 of the molar value. Active and inactive are the calls of the source. No cut-off for these calls is given here.
Tests used:
[1] = biological target: D(1A) dopamine receptor (Homo sapiens, UniProt P21728); assay: Binding affinity to D1 receptor (unknown origin)
[2] = biological target: 5-hydroxytryptamine receptor 1A (Homo sapiens, UniProt P08908); assay: Binding affinity to 5-HT1A receptor (unknown origin)
[3] = Tmax in CD1 mouse at 2 mg/kg, iv measured upto 10 hrs by LC-MS analysis; format: ADME, organism-based; settings: in vivo
[4] = AUC(0 to t) in CD1 mouse at 2 mg/kg, iv measured upto 10 hrs by LC-MS analysis; format: ADME, organism-based; settings: in vivo
[5] = biological target: Muscarinic acetylcholine receptor M5 (Homo sapiens, UniProt P08912); assay: Binding affinity to M5 receptor (unknown origin)
[6] = Oral bioavailability in CD1 mouse at 15 mg/kg measured upto 24 hrs by LC-MS analysis; format: ADME, organism-based; settings: in vivo
[7] = biological target: D(3) dopamine receptor (Homo sapiens, UniProt P35462); assay: Binding affinity to D3 receptor (unknown origin)
[8] = biological target: Sodium-dependent serotonin transporter (Rattus norvegicus) (UniProt P31652); assay: Antagonist activity at rat cerebral cortex membrane SERT at 10 uM incubated for 10 mins in presence of [3H]5-HT relative to control; format: cell membranes; set-up: scale not given: the % may be the effect or the level left; settings: filed as antagonist
[9] = biological target: Muscarinic acetylcholine receptor M3 (Homo sapiens, UniProt P20309); assay: Binding affinity to M3 receptor (unknown origin)
[10] = biological target: 5-hydroxytryptamine receptor 6 (Homo sapiens, UniProt P50406); assay: Binding affinity to 5-HT6 receptor (unknown origin)
[11] = biological target: Histamine H4 receptor (Homo sapiens, UniProt Q9H3N8); assay: Binding affinity to H4 receptor (unknown origin)
[12] = AUC(0 to infinity) in CD1 mouse at 2 mg/kg, iv measured upto 10 hrs by LC-MS analysis; format: ADME, organism-based; settings: in vivo
[13] = biological target: Muscarinic acetylcholine receptor M1 (Homo sapiens, UniProt P11229); assay: Binding affinity to M1 receptor (unknown origin)
[14] = test system: Mus musculus; assay: Antidepressant activity in Kunming mouse chronic unpredictable mild stress model assessed as increase in sucrose preference at 0.5 to 6 mg/kg, IG measured after 1 week; format: functional, organism-based; settings: dose 0.5-6 mg/kg, time 1.0 weeks
[15] = test system: Rattus norvegicus; assay: Antidepressant activity against ACTH-induced treatment resistant depression in Sprague-Dawley rat model assessed as reduction in immobility time at 20 to 40 mg/kg, IG by forced swimming test; format: functional, organism-based; settings: dose 20-40 mg/kg
[16] = AUC(0 to t) in CD1 mouse at 15 mg/kg, po measured upto 24 hrs by LC-MS analysis; format: ADME, organism-based; settings: in vivo
[17] = test system: Mus musculus; assay: Antidepressant activity in Kunming mouse chronic unpredictable mild stress model assessed as increase in sucrose preference at 2 to 6 mg/kg, IG measured after 3 weeks; format: functional, organism-based; settings: dose 2-6 mg/kg
[18] = biological target: Sodium-dependent dopamine transporter (Homo sapiens, UniProt Q01959); assay: Binding affinity to DAT (unknown origin)
[19] = biological target: T1, 5-hydroxytryptamine receptor 2C (Homo sapiens) (UniProt P28335); assay: Antagonist activity at 5-HT2C in HEK293 cells at 10 uM incubated for 60 mins by FLIPR assay relative to control; format: cell-based; set-up: scale not given: the % may be the effect or the level left; settings: filed as antagonist
T1 sequence (whole entry): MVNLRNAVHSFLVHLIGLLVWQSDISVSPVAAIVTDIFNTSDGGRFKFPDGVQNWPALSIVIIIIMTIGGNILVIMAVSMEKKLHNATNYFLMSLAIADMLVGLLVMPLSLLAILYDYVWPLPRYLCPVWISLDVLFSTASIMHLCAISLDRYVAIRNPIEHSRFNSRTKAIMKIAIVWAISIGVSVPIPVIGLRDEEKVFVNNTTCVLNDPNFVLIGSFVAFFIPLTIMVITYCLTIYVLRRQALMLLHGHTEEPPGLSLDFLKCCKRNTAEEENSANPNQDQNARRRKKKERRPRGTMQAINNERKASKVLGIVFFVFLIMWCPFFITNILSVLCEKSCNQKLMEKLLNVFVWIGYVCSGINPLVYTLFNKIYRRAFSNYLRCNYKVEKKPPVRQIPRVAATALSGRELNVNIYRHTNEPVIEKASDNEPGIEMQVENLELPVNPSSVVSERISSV

[20] = biological target: Voltage-gated inwardly rectifying potassium channel KCNH2 (Homo sapiens, UniProt Q12809); assay: Inhibition of human ERG expressed in HEK293 cells by whole-cell patch clamp method; format: toxicity, cell-based
[21] = MRTlast in CD1 mouse at 15 mg/kg, po measured upto 24 hrs by LC-MS analysis; format: ADME, organism-based; settings: in vivo
[22] = biological target: Transporter (Rattus norvegicus, UniProt Q63380); assay: Antagonist activity at rat cerebral cortex membrane NET incubated for 10 mins in presence of [3H]-NE; format: cell membranes
[23] = biological target: 5-hydroxytryptamine receptor 2A (Rattus norvegicus, UniProt P14842); assay: Displacement of [3H]-ketanserin from 5-HT2A in rat cerebral cortex incubated for 15 mins by liquid scintillation counting method; format: tissue-based
[24] = biological target: Sodium-dependent serotonin transporter (Rattus norvegicus, UniProt P31652); assay: Antagonist activity at rat cerebral cortex membrane SERT incubated for 10 mins in presence of [3H]5-HT; format: cell membranes
[25] = Half-life in CD1 mouse at 2 mg/kg, iv measured upto 10 hrs by LC-MS analysis; format: ADME, organism-based; settings: in vivo
[26] = biological target: T2, Alpha-1A adrenergic receptor (Rattus norvegicus, UniProt P43140); assay: Displacement of [3H]-prazosin from adrenergic alpha-1 receptor in rat cerebral cortex incubated for 60 mins by liquid scintillation counting method; format: toxicity, tissue-based
T2 sequence (P43140 whole entry): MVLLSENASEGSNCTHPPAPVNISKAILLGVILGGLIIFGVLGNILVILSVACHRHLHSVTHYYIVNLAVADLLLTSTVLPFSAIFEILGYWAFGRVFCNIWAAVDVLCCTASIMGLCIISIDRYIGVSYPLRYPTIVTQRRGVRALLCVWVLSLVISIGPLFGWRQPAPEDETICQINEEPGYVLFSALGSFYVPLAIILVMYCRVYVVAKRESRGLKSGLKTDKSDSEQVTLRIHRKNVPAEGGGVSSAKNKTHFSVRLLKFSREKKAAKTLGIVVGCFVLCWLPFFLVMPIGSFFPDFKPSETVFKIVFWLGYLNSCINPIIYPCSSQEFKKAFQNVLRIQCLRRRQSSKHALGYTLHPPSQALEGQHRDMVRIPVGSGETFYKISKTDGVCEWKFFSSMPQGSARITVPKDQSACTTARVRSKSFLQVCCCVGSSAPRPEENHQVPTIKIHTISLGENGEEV

[27] = biological target: D(2) dopamine receptor (Homo sapiens, UniProt P14416); assay: Binding affinity to D2 receptor (unknown origin)
[28] = AUC(0 to infinity) in CD1 mouse at 15 mg/kg, po measured upto 24 hrs by LC-MS analysis; format: ADME, organism-based; settings: in vivo
[29] = Cmax in CD1 mouse at 15 mg/kg, po measured upto 24 hrs by LC-MS analysis; format: ADME, organism-based; settings: in vivo
[30] = test system: Mus musculus; assay: Antidepressant activity in IG dosed Kunming mouse assessed as decrease in immobility time by measuring minimal effective dose by forced swimming test; format: functional

5-hydroxytryptamine receptor 6, sequence (P50406 whole entry): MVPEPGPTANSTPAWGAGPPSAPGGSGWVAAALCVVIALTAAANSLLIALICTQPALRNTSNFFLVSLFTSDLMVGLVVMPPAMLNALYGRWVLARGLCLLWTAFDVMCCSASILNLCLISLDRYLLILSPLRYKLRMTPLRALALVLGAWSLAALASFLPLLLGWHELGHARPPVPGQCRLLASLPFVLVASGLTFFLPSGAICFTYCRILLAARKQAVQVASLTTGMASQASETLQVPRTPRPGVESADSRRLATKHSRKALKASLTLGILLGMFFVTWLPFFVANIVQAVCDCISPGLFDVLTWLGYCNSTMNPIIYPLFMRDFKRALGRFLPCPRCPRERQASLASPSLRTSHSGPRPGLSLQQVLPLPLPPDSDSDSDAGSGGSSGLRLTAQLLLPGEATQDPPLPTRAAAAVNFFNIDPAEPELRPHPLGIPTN
Muscarinic acetylcholine receptor M5, sequence (P08912 whole entry): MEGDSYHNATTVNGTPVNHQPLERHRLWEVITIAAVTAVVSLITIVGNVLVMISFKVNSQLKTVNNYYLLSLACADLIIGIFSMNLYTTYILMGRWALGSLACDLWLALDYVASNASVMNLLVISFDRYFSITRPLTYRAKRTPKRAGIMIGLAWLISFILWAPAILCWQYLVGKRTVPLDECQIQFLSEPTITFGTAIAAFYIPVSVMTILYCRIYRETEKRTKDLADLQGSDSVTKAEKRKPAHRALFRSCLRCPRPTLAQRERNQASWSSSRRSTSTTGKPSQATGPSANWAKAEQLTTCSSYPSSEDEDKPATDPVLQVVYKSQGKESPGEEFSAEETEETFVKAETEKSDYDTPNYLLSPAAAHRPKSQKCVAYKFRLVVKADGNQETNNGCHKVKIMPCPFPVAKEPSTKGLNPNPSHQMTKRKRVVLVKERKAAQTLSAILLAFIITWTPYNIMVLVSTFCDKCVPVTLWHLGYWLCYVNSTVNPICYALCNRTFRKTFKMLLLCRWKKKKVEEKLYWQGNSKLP
D(2) dopamine receptor, sequence (P14416 whole entry): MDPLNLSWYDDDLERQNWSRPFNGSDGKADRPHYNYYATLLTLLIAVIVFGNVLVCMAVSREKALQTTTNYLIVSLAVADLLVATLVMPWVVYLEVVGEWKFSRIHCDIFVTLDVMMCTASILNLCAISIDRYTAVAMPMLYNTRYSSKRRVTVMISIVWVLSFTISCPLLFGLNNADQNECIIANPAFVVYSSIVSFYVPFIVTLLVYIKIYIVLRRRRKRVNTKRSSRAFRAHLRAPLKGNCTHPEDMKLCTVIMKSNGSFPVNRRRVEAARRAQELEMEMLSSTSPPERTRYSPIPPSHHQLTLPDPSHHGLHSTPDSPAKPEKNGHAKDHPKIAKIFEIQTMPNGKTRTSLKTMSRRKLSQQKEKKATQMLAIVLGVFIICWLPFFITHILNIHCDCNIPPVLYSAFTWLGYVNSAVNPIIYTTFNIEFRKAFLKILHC
Muscarinic acetylcholine receptor M1, sequence (P11229 whole entry): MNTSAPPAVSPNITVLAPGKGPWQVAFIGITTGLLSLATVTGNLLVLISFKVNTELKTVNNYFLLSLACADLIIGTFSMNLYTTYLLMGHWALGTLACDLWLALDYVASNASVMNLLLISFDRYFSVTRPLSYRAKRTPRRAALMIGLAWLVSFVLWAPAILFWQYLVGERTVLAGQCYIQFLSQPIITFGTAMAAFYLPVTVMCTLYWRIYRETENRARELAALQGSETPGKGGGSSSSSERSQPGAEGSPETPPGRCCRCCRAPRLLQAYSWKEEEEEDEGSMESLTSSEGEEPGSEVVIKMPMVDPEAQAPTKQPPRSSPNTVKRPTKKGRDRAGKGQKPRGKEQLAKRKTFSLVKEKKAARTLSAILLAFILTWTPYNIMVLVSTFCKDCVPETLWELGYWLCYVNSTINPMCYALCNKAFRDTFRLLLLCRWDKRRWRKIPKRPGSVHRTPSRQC
Voltage-gated inwardly rectifying potassium channel KCNH2, sequence (Q12809 whole entry): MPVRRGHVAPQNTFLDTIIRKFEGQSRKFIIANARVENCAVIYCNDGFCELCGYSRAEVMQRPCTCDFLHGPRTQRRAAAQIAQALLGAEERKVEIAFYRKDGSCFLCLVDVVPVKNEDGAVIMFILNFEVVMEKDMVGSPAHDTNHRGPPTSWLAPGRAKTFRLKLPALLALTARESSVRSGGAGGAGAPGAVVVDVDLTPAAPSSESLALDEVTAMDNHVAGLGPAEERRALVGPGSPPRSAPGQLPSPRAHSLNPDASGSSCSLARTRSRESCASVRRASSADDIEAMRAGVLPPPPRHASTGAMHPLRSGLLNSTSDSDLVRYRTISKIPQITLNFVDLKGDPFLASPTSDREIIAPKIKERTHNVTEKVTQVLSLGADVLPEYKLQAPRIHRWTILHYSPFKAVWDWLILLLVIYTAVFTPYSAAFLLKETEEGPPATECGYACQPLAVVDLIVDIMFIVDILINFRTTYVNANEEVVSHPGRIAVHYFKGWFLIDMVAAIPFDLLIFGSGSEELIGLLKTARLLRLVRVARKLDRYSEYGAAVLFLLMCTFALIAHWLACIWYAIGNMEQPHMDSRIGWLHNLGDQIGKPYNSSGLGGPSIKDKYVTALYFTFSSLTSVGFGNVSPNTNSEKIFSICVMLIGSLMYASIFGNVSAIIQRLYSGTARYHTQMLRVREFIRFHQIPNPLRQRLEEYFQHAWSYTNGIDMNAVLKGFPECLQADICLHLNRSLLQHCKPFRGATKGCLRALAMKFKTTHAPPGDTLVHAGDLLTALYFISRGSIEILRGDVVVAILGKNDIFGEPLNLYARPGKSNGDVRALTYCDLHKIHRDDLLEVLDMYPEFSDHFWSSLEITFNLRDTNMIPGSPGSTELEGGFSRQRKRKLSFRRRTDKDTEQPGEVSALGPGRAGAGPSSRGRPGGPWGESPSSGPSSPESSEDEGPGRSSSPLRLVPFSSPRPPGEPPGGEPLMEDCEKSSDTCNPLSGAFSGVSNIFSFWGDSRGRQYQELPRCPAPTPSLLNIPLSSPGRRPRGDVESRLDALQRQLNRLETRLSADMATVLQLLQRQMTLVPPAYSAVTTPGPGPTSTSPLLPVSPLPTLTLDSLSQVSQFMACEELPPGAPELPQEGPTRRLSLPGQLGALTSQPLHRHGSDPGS
Transporter, sequence (Q63380 whole entry): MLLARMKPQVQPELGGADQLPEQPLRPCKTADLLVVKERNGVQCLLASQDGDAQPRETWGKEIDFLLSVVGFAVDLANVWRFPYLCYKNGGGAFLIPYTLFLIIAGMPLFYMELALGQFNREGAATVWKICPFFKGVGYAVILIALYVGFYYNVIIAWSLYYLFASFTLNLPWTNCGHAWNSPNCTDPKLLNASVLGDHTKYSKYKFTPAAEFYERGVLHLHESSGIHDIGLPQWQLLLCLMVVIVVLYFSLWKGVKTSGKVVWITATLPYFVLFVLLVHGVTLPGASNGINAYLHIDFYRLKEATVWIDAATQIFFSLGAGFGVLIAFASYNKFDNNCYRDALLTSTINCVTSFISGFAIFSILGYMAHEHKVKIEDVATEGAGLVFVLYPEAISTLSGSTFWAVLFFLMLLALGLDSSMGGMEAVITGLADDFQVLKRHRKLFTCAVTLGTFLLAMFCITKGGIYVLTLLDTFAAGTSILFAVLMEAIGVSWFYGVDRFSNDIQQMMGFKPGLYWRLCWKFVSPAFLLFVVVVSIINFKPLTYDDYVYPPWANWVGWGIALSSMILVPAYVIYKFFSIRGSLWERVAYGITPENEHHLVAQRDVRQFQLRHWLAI
D(1A) dopamine receptor, sequence (P21728 whole entry): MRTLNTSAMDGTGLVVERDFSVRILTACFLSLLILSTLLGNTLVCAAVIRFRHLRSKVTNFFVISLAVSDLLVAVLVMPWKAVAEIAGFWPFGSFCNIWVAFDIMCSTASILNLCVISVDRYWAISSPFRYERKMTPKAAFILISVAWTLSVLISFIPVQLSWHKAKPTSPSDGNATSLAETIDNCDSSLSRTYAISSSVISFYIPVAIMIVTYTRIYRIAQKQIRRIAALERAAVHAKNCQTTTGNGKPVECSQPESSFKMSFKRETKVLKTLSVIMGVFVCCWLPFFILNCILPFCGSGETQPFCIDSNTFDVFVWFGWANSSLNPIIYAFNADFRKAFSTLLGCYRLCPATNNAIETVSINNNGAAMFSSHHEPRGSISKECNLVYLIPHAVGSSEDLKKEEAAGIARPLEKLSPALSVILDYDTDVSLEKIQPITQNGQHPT
Sodium-dependent serotonin transporter (Rattus norvegicus), sequence (P31652 whole entry): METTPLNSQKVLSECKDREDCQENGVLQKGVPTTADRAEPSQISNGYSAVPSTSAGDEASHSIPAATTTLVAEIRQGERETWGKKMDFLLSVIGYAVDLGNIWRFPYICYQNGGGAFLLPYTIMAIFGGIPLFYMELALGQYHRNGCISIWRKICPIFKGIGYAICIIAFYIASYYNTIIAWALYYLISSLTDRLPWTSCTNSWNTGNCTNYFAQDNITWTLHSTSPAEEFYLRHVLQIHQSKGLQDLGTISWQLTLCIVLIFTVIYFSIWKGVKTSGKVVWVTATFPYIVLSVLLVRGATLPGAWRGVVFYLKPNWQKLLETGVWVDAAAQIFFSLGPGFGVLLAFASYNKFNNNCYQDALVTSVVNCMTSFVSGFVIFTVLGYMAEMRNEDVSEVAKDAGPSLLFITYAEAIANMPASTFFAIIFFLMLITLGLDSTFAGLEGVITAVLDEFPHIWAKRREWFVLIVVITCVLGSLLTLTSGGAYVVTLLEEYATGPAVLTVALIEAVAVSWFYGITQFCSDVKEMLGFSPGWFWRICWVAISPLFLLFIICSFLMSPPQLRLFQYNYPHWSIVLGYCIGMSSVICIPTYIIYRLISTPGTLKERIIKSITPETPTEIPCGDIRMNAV

CN(C)CC[C@@H](Oc1cccc2c1OCO2)c1ccc(F)cc1.O=C(O)C(=O)O
pKi [1]: < 6.00 | pKi [2]: < 6.00 | Tmax [3]: 4.8 min | AUC(0-t) at 10 h [4]: 304 ng·h/mL | pKi [5]: < 6.00 | bioavailability [6]: 20.3% | pKi [7]: < 6.00 | Activity [8]: 99.7% | pKi [9]: < 6.00 | pKi [10]: < 6.00 | pKi [11]: < 6.00 | AUC(0-inf) [12]: 310 ng·h/mL | pKi [13]: 6.19 | Activity [14]: inactive | Activity [15]: Active | AUC(0-t) at 24 h [16]: 462 ng·h/mL | Activity [17]: Active | pKi [18]: < 6.00 | Activity [19]: 99.1% | pIC50 [20]: 5.91 | MRT last at 24 h [21]: 3.1 h | pIC50 [22]: 7.06 | pKi [23]: 7.58 | pIC50 [24]: 7.63 | half-life [25]: 1.2 h | pKi [26]: 5.84 | pKi [27]: < 6.00 | AUC(0-inf) [28]: 474 ng·h/mL | Cmax [29]: 144 ng/mL | Activity [30]: Dose-dependent-effect | minimal effective dose ([30]; po, read-out: MED): 6.4 mg/kg

From ChEMBL document CHEMBL6083240, “Design, synthesis and biological evaluation of arylpropylamine derivatives as potential multi-target antidepressants” (Bioorg Med Chem, 2024)
